What all share (test): Antibacterial activity, MIC by agar dilution (CLSI)
Common to all, as to format: cell-based
In general terms: In agar dilution, organisms are placed on agar that contains the substance at set levels.

One test deals with E. coli 13351. The note with it: Escherichia coli, 13351, E. coli 13351; compound tested alone; read-out: MIC. In a few lines:
(§1)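 Mueller Hinton agar with doubling dilutions of compound was spot-inoculated at about 10^4 CFU/spot from diluted overnight cultures using a multipoint inoculator. Plates were incubated at 35° C. for 18 hour (also described as 35±2° C., 16-20 hours, ambient air, or 37° C., 18 hours) and scored for growth or no growth.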

The subject of the next test is E. coli 13352. The note with it: Escherichia coli, 13352, E. coli 13352; compound tested alone; read-out: MIC. In a few lines: as §1
Another test relates to E. coli 13353. The note with it: Escherichia coli, 13353, E. coli 13353; compound tested alone; read-out: MIC. In a few lines:
as §1

The next test relates to E. coli 7 MP. The note with it: Escherichia coli, 7MP, compound tested alone, read-out: MIC. The method, boiled down: as §1
Another test deals with E. coli H 483. The note with it: Escherichia coli, H483, compound tested alone, read-out: MIC. The method, boiled down: as §1
The test system of another test is E. coli M 138. The following applies: Escherichia coli, M138, E. coli M 138; compound tested alone; read-out: MIC. In a few lines: as §1
The test system of a further test is E. coli M 36. The following applies: Escherichia coli, M36, E. coli M 36; compound tested alone; read-out: MIC. The method, boiled down: as §1
For another test, the system named is E. coli M 49. The note with it: Escherichia coli, M49, E. coli M 49; compound tested alone; read-out: MIC. The method, boiled down: as §1
A further test relates to E. coli M 50. The note with it: Escherichia coli, M50, E. coli M 50; compound tested alone; read-out: MIC. The method, boiled down: as §1
Test [1] has as its system K. pneumoniae ATCC 700603. The following applies: Klebsiella pneumoniae, ATCC700603, compound tested alone, read-out: MIC. The method, boiled down: as §1
The next test concerns K. pneumoniae H 521. The following applies: Klebsiella pneumoniae, H521, K. pneumoniae H 521; compound tested alone; read-out: MIC. In a few lines: as §1
Another test deals with K. pneumoniae H 522. The note with it: Klebsiella pneumoniae, H522, K. pneumoniae H 522; compound tested alone; read-out: MIC. The method, boiled down:
as §1

A further test has as its system K. pneumoniae H 523. The note with it: Klebsiella pneumoniae, H523, K. pneumoniae H 523; compound tested alone; read-out: MIC. In a few lines: as §1
The subject of a further test is K. pneumoniae H 525. The note with it: Klebsiella pneumoniae, H525, K. pneumoniae H 525; compound tested alone; read-out: MIC. In a few lines: as §1
The subject of a further test is P. mirabilis S 137B. The note with it: Proteus mirabilis, S137B, compound tested alone, read-out: MIC. In a few lines: as §1

The structures appear in SMILES notation. A value given as a limit tells only on which side of the number the result lay.

Take `O=C(NOC[C@H]1C[C@H](n2nccn2)CN1)[C@@H]1CC[C@@H]2CN1C(=O)N2OS(=O)(=O)O` [Example 13]: the MIC was 2 µg/mL in the test on E. coli 13351; 2 µg/mL in the test on E. coli 13352; 1 µg/mL in the test on E. coli 13353; 4 µg/mL in the test on E. coli 7 MP; > 32 µg/mL in the test on E. coli H 483; 1 µg/mL in the test with E. coli M 138. Also, the MIC in the test on E. coli M 36 is 1 µg/mL; in the test on E. coli M 49 it was 8 µg/mL; in the test with E. coli M 50 it was 2 µg/mL; in test [1] it was > 32 µg/mL; with K. pneumoniae H 521, 2 µg/mL; in the test with K. pneumoniae H 522 it was 2 µg/mL. For the same compound, the MIC with K. pneumoniae H 523 is 2 µg/mL; with K. pneumoniae H 525, 2 µg/mL; in the test with P. mirabilis S 137B, > 32 µg/mL.

For `O=C(NOC[C@H]1C[C@H](n2ccnn2)CN1)[C@@H]1CC[C@@H]2CN1C(=O)N2OS(=O)(=O)O` [Example 14], the MIC was 4 µg/mL with E. coli 13351; 4 µg/mL with E. coli 13352; 2 µg/mL in the test on E. coli 13353; 4 µg/mL in the test with E. coli 7 MP; > 32 µg/mL with E. coli H 483; 2 µg/mL in the test on E. coli M 138. Moreover, the MIC was 2 µg/mL in the test with E. coli M 36; 8 µg/mL with E. coli M 49; 2 µg/mL with E. coli M 50; > 32 µg/mL in [1]; 4 µg/mL in the test on K. pneumoniae H 521; 4 µg/mL with K. pneumoniae H 522. For the same compound, the minimal inhibitory concentration (MIC) was 4 µg/mL with K. pneumoniae H 523, 4 µg/mL in the test with K. pneumoniae H 525 and > 32 µg/mL with P. mirabilis S 137B.

On to `Nc1cn([C@@H]2CN[C@H](CONC(=O)[C@@H]3CC[C@@H]4CN3C(=O)N4OS(=O)(=O)O)C2)cn1` [Example 16], for which the MIC was 2 µg/mL with E. coli 13351; 2 µg/mL in the test on E. coli 13352; 2 µg/mL in the test with E. coli 13353; 8 µg/mL in the test on E. coli 7 MP; > 32 µg/mL with E. coli H 483; 2 µg/mL in the test with E. coli M 138. In addition, the MIC is 2 µg/mL in the test on E. coli M 36; 8 µg/mL in the test on E. coli M 49; 2 µg/mL in the test with E. coli M 50; > 32 µg/mL in test [1]; 4 µg/mL in the test with K. pneumoniae H 521; 4 µg/mL in the test on K. pneumoniae H 522. The MIC was 4 µg/mL with K. pneumoniae H 523, 4 µg/mL in the test on K. pneumoniae H 525 and > 32 µg/mL with P. mirabilis S 137B.

By MIC is commonly meant the lowest concentration found to suppress growth.

These data come from US10501464B2, “7-oxo-6-(sulfooxy)-1,6-diazabicyclo[3.2.1]octane-2-carboxamide containing compounds and their use in treating bacterial infections” (WOCKHARDT LIMITED, priority 2015, dated 2019).
